Data as given in ChEMBL document CHEMBL3137667, “[Drug-induced liver injury; fourteenth updated edition of the bibliographic database of liver injuries and related drugs]” (Gastroenterol Clin Biol, 2004).

Legend:
[1] = Highest frequency of moderate liver toxicity observed during clinical trials, expressed as a percentage. [column '% BIOL' in source]; settings: human
[2] = Highest frequency of acute liver toxicity observed during clinical trials, expressed as a percentage. [column '% AIGUE' in source]; settings: human
[3] = Times to onset, minimal and maximal, observed in the indexed observations. [column 'DELAI' in source]; settings: human
[4] = human, serum
[5] = human, serum; remark: listed apart in the source
[6] = human
[7] = human; remark: listed apart in the source
[8] = human; remark: listed apart in the source
[9] = human, serum, 4383 h
[10] = human; remark: listed apart in the source
[11] = human; remark: listed apart in the source
[12] = human; remark: listed apart in the source
[13] = human; remark: listed apart in the source
[14] = human; remark: listed apart in the source
[15] = human; remark: listed apart in the source
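For Hepatotoxicity (association with vascular disease) in this document: count of indexed literature references reporting vascular liver injury in humans, e.g. peliosis hepatitis, hepatic veno-occlusive disease or Budd-Chiari syndrome.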
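For Hepatotoxicity (benign tumour) in this document: value is a count of indexed literature references citing a benign tumour confirmed by histopathology.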
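For Hepatotoxicity (choleostasis) in this document: human cholestatic liver injury, shown by histopathology or by peak ALT or AST elevation over alkaline phosphatase ratio below 2, value counts indexed literature reports.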
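For Hepatotoxicity (chronic liver disease) in this document: chronic liver injury confirmed by histopathology or persistently raised serum aminotransferase activity beyond 6 months, value given as the count of indexed literature references.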
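For Hepatotoxicity (cirrhosis) in this document: value is a count of indexed literature references reporting cirrhosis confirmed by histopathology.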
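For Hepatotoxicity (cytolytic) in this document: human cytolytic liver injury, shown by histopathology or by a ratio above 5 of peak ALT or AST elevation to alkaline phosphatase elevation, value counts indexed references.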
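For Hepatotoxicity (granulomatous hepatitis) in this document: value is a count of indexed literature references reporting granulomatous liver disease confirmed by histopathology.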
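For Hepatotoxicity (malignant tumour) in this document: malignant tumour confirmed by histopathology, value gives the count of indexed literature references reporting it.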
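For Hepatotoxicity (severe hepatitis) in this document: human clinical data: severe hepatitis, meaning potentially life-threatening liver failure or clinically observed cases, the value counts how many indexed literature references report it.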
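For Hepatotoxicity (steatosis) in this document: steatosis confirmed by histopathology, value is the count of indexed references.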

SMILES	Hepatotoxicity (moderate) [1]	Hepatotoxicity (acute) [2]	Hepatotoxicity (time to onset) [3]	Hepatotoxicity (moderate) [4]	Hepatotoxicity (acute) [5]	Hepatotoxicity (cytolytic) [6]	Hepatotoxicity (choleostasis) [7]	Hepatotoxicity (severe hepatitis) [8]	Hepatotoxicity (chronic liver disease) [9]	Hepatotoxicity (cirrhosis) [10]	Hepatotoxicity (granulomatous hepatitis) [11]	Hepatotoxicity (association with vascular disease) [12]	Hepatotoxicity (steatosis) [13]	Hepatotoxicity (malignant tumour) [14]	Hepatotoxicity (benign tumour) [15]	Hepatotoxicity (moderate) ([1]; Liver)	Hepatotoxicity (acute) ([2]; Liver)	Hepatotoxicity (severe hepatitis) ([8]; Liver)
CN(C)CCOc1ccc(/C(=C(/CCCl)c2ccccc2)c2ccccc2)cc1 [TOREMIFENE]	8.3%	6.1%	3 months	4	2	0	1	0	0	0	0	0	1	0	0			
CCOC(=O)[C@H](CCc1ccccc1)N[C@@H](C)C(=O)N1[C@H](C(=O)O)C[C@H]2CCCC[C@@H]21 [TRANDOLAPRIL]	1.1%	0%	2 weeks	2	1	0	1	0	0	0	0	0	0	0	0			
NS(=O)(=O)c1cc2c(cc1Cl)NC(C(Cl)Cl)NS2(=O)=O (stereo not given) [TRICHLORMETHIAZIDE]	0%	0%	1 week	1	0	0	0	0	0	0	1	0	0	0	0			
CSc1nc2cc(Cl)c(Oc3cccc(Cl)c3Cl)cc2[nH]1 [TRICLABENDAZOLE]	0%	0.7%	3 days	0	1	0	1	0	0	0	0	0	0	0	0			
COc1ccc(CN2CCNCC2)c(OC)c1OC [TRIMETAZIDINE]	0%	0%	2 weeks	0	1	0	1	0	0	0	0	0	0	0	0			
COc1cc(C(=O)NCc2ccc(OCCN(C)C)cc2)cc(OC)c1OC [TRIMETHOBENZAMIDE]	0%	0%	5 days	0	2	2	1	0	0	0	0	0	0	0	0			
N[C@@H]1[C@H]2CN(c3nc4c(cc3F)c(=O)c(C(=O)O)cn4-c3ccc(F)cc3F)C[C@@H]12 [TROVAFLOXACIN]			5 days - 4 weeks	4	6	6	1		0	0	0	0	0	0	0	2.3%	0%	1
CN[C@H](CC(C)C)C(=O)N[C@H]1C(=O)N[C@@H](CC(N)=O)C(=O)N[C@H]2C(=O)N[C@H]3C(=O)N[C@H](C(=O)N[C@H](C(=O)O)c4cc(O)cc(O)c4-c4cc3ccc4O)[C@H](O)c3ccc(c(Cl)c3)Oc3cc2cc(c3O[C@@H]2O[C@H](CO)[C@@H](O)[C@H](O)[C@H]2O[C@H]2C[C@](C)(N)[C@H](O)[C@H](C)O2)Oc2ccc(cc2Cl)[C@H]1O [VANCOMYCIN]	50%	0%	4 days	9	1	1	0	0	0	0	0	0	0	0	0			
Nc1c2c(nc3ccccc13)CCCC2O (stereo not given) [VELNACRINE]	35%	7.3%	4 weeks - 3 months	8	2	2	0	0	0	0	0	0	0	0	0			
C=CC(N)CCC(=O)O (stereo not given) [VIGABATRIN]	13.3%	0%	9 months	3	2	2	0	1	0	0	0	0	0	0	0			
